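96-well plates; 48 h exposure; 5 concentrations. Endpoints by linear interpolation between flanking doses. Not reached: highest tested concentration assigned. The concentration for 50% growth inhibition is given as GI50.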 Active and inactive are the calls of the source. No stated cut-off is given here; in the data, active = GI50 up to about 1.1 µM and inactive = higher.

Test systems include HOP-62; HCT-116; HCT-15; HOP-92; U-251; SF-268; SW-620; SK-OV-3; TK-10; CCRF-CEM; SR; OVCAR-4; KM-20L2; OVCAR-3; Malme-3M; SK-MEL-5; NCI-H522; NCI-H23.
Holding throughout (experiment): NCI-60 cell line screen, 48 h

Take `COc1ccc2[nH]c3c(C)c4c(c(C)c3c2c1)CN(C)CC4`: the GI50 with HOP-62 was 17.3 µM (inactive); in the assay on HCT-116 it was 3.17 µM (inactive); with HCT-15 it was 16.1 µM; with HOP-92 it was 16.9 µM (inactive); in the assay on U-251, 17.7 µM (inactive); in the assay on SF-268, 18.9 µM (inactive). The GI50 in the assay on SW-620 is 4.21 µM (inactive); in the assay on SK-OV-3, 16.3 µM (inactive); in the assay on TK-10, 23.4 µM (inactive); with CCRF-CEM it was 3.22 µM (inactive); in the assay on SR, 23.4 µM (inactive); with OVCAR-4, 19 µM (inactive). Also, the GI50 in the assay on KM-20L2 was 17 µM (inactive); in the assay with OVCAR-3, 16 µM (inactive); in the assay with Malme-3M, 19.8 µM (inactive); in the assay on SK-MEL-5 it was 17.5 µM (inactive); with NCI-H522 it was 18 µM (inactive).
For the molecule `Cc1nc(-n2nc(-c3ccccc3)cc2-c2ccccc2)sc1C(=O)CC(=O)C(=O)Nc1ccc(O)cc1`, the GI50 with HOP-62 is > 100 µM (inactive); with HCT-116 it was > 100 µM (inactive); with HCT-15, greater than 100 µM; in the assay with U-251, > 100 µM (inactive); with SF-268 it was > 100 µM (inactive); in the assay with NCI-H23, > 100 µM (inactive). The GI50 in the assay on SW-620, in the assay with SK-OV-3, in the assay with TK-10, with CCRF-CEM, in the assay with SR and in the assay with OVCAR-4 was > 100 µM (inactive) throughout. In addition, the GI50 in the assay with KM-20L2, in the assay with OVCAR-3, with Malme-3M and in the assay with NCI-H522 was > 100 µM (inactive) each time.
Take `C(=C1/CCCCC([n+]2ccccc2)=N1)/c1ccccc1`: the GI50 was > 100 µM (inactive) in the assay on HOP-62; > 100 µM (inactive) with HCT-116; greater than 100 µM in the assay on HCT-15; > 100 µM (inactive) in the assay on HOP-92; > 100 µM (inactive) in the assay with U-251; > 100 µM (inactive) in the assay on SF-268. The GI50 with NCI-H23, in the assay on SW-620, in the assay with SK-OV-3, in the assay on CCRF-CEM, in the assay on SR and in the assay on OVCAR-4 was > 100 µM (inactive) each time. The GI50 in the assay on KM-20L2, in the assay on OVCAR-3, in the assay with Malme-3M and with NCI-H522 was > 100 µM (inactive) each time.
In the case of `CCOCc1cc(=O)c2c(OC)cc3c(c2o1)CCC(C)(C)O3`, the GI50 is > 100 µM (inactive) in the assay with HOP-62; > 100 µM (inactive) with HCT-116; greater than 100 µM in the assay with HCT-15; 33.4 µM (inactive) in the assay on HOP-92; > 100 µM (inactive) in the assay with U-251; > 100 µM (inactive) in the assay on NCI-H23. The GI50 in the assay on SW-620, in the assay on SK-OV-3, in the assay on TK-10, in the assay on CCRF-CEM, in the assay on SR and with OVCAR-4 was > 100 µM (inactive) each time. Further, the GI50 in the assay with KM-20L2, in the assay on OVCAR-3, with Malme-3M, in the assay with SK-MEL-5 and in the assay on NCI-H522 was > 100 µM (inactive) throughout.
For `O=C1c2ccccc2C(=O)c2c(O)c(NCCNCCO)cc(O)c21`, the GI50 is 3.93 µM (inactive) in the assay on HOP-62; 2.3 µM (inactive) in the assay with HCT-116; 3.64 µM in the assay on HCT-15; 11.1 µM (inactive) in the assay with HOP-92; 4.29 µM (inactive) with SF-268; 3.77 µM (inactive) in the assay on NCI-H23. The GI50 with SW-620 is 2.79 µM (inactive); in the assay on TK-10 it was 5 µM (inactive); with CCRF-CEM it was 3.05 µM (inactive); in the assay on SR, 2.2 µM (inactive); in the assay with OVCAR-4, 2.99 µM (inactive); in the assay with KM-20L2, 4.12 µM (inactive). For the same molecule, the GI50 with OVCAR-3 was 4.39 µM (inactive); with Malme-3M, 12.1 µM (inactive); in the assay on SK-MEL-5, 3.44 µM (inactive).
On to `COCc1c(CO)cnc(C)c1OC1OC(CO)C(O)C(O)C1O` (stereo unspecified), for which the GI50 in the assay on HOP-62 was > 100 µM (inactive); with HCT-116, > 100 µM (inactive); with HCT-15 it was greater than 100 µM; with U-251, > 100 µM (inactive); in the assay with SF-268 it was > 100 µM (inactive); in the assay with SW-620, > 100 µM (inactive). Moreover, the GI50 in the assay with SK-OV-3, with SR, in the assay on OVCAR-4, with KM-20L2, in the assay with OVCAR-3 and in the assay on Malme-3M was > 100 µM (inactive) each time. The GI50 in the assay with SK-MEL-5 and in the assay on NCI-H522 was > 100 µM (inactive) in each case.
In the case of `COc1ccc2cccc(C(=N)c3ccc(C)c4c3CCC4)c2c1`, the GI50 with HOP-62 is 7.26 µM (inactive); in the assay with HCT-116 it was 4.59 µM (inactive); in the assay on HCT-15 it was 7.46 µM; with U-251 it was 9.57 µM (inactive); in the assay with SF-268, 16.4 µM (inactive); in the assay with NCI-H23, 7.57 µM (inactive). For the same molecule, the GI50 in the assay on SW-620 is 5.38 µM (inactive); with SK-OV-3, 14.5 µM (inactive); in the assay with TK-10, 11.6 µM (inactive); with CCRF-CEM, 6.58 µM (inactive); with SR, 2.62 µM (inactive); in the assay on OVCAR-4, 12.2 µM (inactive). In addition, the GI50 with KM-20L2 was 5.82 µM (inactive); with OVCAR-3 it was 3.52 µM (inactive); in the assay with Malme-3M it was 3.62 µM (inactive); in the assay with SK-MEL-5, 3.9 µM (inactive); with NCI-H522, 3.72 µM (inactive).
As for `C/C(CN1C(=O)c2ccccc2C1=O)=N\NS(=O)(=O)c1ccc2ccccc2c1`, the GI50 with HOP-62 is > 100 µM (inactive); in the assay on HCT-116 it was > 100 µM (inactive); in the assay with HCT-15 it was greater than 100 µM; in the assay with U-251 it was > 100 µM (inactive); in the assay on SF-268 it was 88.5 µM (inactive); in the assay on NCI-H23, > 100 µM (inactive). Moreover, the GI50 in the assay with SW-620, with SK-OV-3, with TK-10, with CCRF-CEM, in the assay on SR and with OVCAR-4 was > 100 µM (inactive) each time. Further, the GI50 is > 100 µM (inactive) in the assay with KM-20L2; > 100 µM (inactive) in the assay on OVCAR-3; > 100 µM (inactive) in the assay on Malme-3M; > 100 µM (inactive) with SK-MEL-5; 57.7 µM (inactive) with NCI-H522.
Regarding `C=CC[C@H](C[C@H](C[C@H](C[C@H](C[C@H](C[C@H](C[C@H](C[C@H](C[C@H](C[C@H](CCCCC)OC)OC)OC)OC)OC)OC)OC)OC)OC)OC`, the GI50 in the assay with HOP-62 was > 100 µM (inactive); with HCT-116 it was 82.6 µM (inactive); in the assay on HOP-92 it was > 100 µM (inactive); with U-251, > 100 µM (inactive); with SF-268 it was > 100 µM (inactive); in the assay on NCI-H23, 98.6 µM (inactive). The GI50 in the assay on SW-620 was > 100 µM (inactive); with SK-OV-3, > 100 µM (inactive); with TK-10 it was > 100 µM (inactive); with CCRF-CEM it was > 100 µM (inactive); with SR, 36.6 µM (inactive); in the assay with OVCAR-4, > 100 µM (inactive). The GI50 with KM-20L2 is > 100 µM (inactive); in the assay on OVCAR-3, > 100 µM (inactive); with Malme-3M it was > 100 µM (inactive); in the assay with SK-MEL-5 it was 52.7 µM (inactive); with NCI-H522 it was 66.2 µM (inactive).

The record behind these values is ChEMBL document CHEMBL1201862, “PubChem BioAssay data set” (2004).
